Where a SMILES comes first, the peptide text is derived from it. Where no end group is shown, it is not given here. The star is where a group is joined. Cbz = O=C(OCc1ccccc1)*; CH2F = FC*
Tests used:
[1] = test system: SH-SY5Y cells; assay: Cell viability, proliferation and cell cycle in a basal state; assay type: cell-based, Human; conditions: up to 50 μM
Method: SH-SY5Y cells were pre-incubated with 25 μM ED11 for one hour. Then, 10 μM 5-bromo-2-deoxyuridine (BrdU) was added for 2 hours. Medium was discarded and cells were fixed with 70% ethanol. DNA denaturation was conducted with 1.5 M HCl exposure for 30 minutes. FITC conjugated anti-BrdU antibody was used to mark incorporated BrdU. DNA staining was performed by using propidium iodide (PI). 15,000 cells per sample were read using FACS-Calibur flow cytometer, and cell-cycle analysis was conducted after doublet discrimination.
To induce exogenous glutamate toxicity, SH-SY5Y cell were incubated with the indicated concentrations of L-Glutamate (Sigma) for 16 hours, in the presence of 20 μM ED11 or vehicle control. For the In-cell caspase-6 activity assay, green FLICA caspase-6 assay (ImmunoChemistry Technologies) was conducted according to the manufacturer's instructions. Briefly, cells were lifted by trypsin and adjusted to 1.5×10^6 cells/ml. Cells were incubated with FAM-VEID-FMK for 1 hour in 37° C., washed with PBS and 5,000 cells per sample were analyzed by flow-cytometry. For apoptosis detection, Annexin V-FITC apoptosis detection assay (Abcam) was conducted according to the manufacturer's instructions. Briefly, 2×10^5 cells were incubated with Annexin V-FITC and PI for 5 minutes in R.T, and 15,000 cells per sample were analyzed by flow-cytometry. For viability assessment, medium was depleted and washed twice with PBS, and alamar-blue dye (AbD serotec, 1/10 in culture medium) was added to the cells, as instructed by the manufacturer. Fluorescence was monitored at 530-560 nm excitation wavelength and 590 nm emission wavelength, and viability was calculated as percentage of untreated control.

[2] = target: T1, caspase-6 (Homo sapiens, UniProt P55212); assay: Purified caspase-6 activity assay (Caspase-Glo 6, Z-VEID-aminoluciferin); assay type: biochemical
T1 construct: purchased Enzo life-science
T1 sequence (P55212 24-293): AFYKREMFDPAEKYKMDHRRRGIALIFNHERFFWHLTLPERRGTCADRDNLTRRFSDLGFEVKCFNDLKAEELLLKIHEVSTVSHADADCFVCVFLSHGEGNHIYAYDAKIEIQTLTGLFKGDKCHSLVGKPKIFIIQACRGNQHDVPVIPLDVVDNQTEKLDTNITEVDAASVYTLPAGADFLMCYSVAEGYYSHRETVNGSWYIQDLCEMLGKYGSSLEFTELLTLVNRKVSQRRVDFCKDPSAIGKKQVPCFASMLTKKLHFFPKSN
Method: For determining ED11 caspase-6 inhibition ability, the Caspase-Glo® 6 assay (Promega) was carried out according to the manufacturer's instructions. Briefly, 0.1 U/ml Purified caspase-6 (Enzo life-science) was incubated with 0-12 μM Z-VEID-aminoluciferin in the presence of 10 μM ED11 or DMSO as vehicle control, and luminescent signal of released aminoluciferin (as RLU) was detected using Synergy HT multi-mode micro-plate reader (Bio-Tek). For Michaelis-Menten curve plotting, initial velocity was calculated using linear regression of the progress curve linear segment, adjusted to RLU/min. For caspase-3 inhibition capability, caspase-3 inhibitor drug detection kit (Abcam) was performed according to the manufacturer's instructions.
EDII inhibits caspase-6 activity in a purified caspase-6 activity assay: To test the peptide ability to compete on caspase-6 activity, purified caspase-6 and Z-VEID-Aminoluciferin (Caspase-6 Glo™, Promega) were incubated with ED11, and bioluminescence signal was detected using SynergyHT microplate reader (FIGS. 1A-1D).

[3] = target: T2, caspase-3 (Homo sapiens, UniProt P42574); assay: Fluorescent caspase-3 inhibition assay (caspase-3 inhibitor drug detection kit); assay type: biochemical; conditions: purified caspase-3/caspase-6 assay, FIGS. 1E-1F
T2 construct: purchased Abcam
T2 sequence (P42574 29-277): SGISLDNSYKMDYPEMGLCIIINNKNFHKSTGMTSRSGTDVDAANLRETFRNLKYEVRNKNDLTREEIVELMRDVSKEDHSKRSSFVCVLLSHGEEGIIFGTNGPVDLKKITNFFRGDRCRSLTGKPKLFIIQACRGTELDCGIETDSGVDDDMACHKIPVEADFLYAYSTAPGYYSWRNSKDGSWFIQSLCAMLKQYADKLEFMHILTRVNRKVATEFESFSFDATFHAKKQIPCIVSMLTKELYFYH

GRKKRRQRRRPPQSSEIVLDGTDN [ED11]
cell proliferation (BrdU) [1]: no effect | cell viability (ALAMAR blue) ([1]; 48 hours incubation): no effect | cell cycle state ([1]; O.N. incubation): no effect

modified peptide: ED11 with three of the amino acids in positions 17, 20 and 23 changed to Histidine (H) (GRKKRRQRRRPPQSSEHVLHGTHN)
caspase-6 activity ([2]; purified caspase-6, Z-VEID-aminoluciferin, 10 μM ED11): ineffective and didn't inhibit the caspase 6 activity

COC(=O)C[C@H](NC(=O)[C@H](C)NC(=O)[C@@H](NC(=O)OCc1ccccc1)C(C)C)C(=O)CF [Z-VAD-FMK, reference compound] (Cbz-Val-Ala-Asp(OMe)-CH2F)
caspase-6 activity, specificity experiment ([2]; purified caspase-3/caspase-6 assay, FIGS. 1E-1F): inhibits activity of caspase-3 and caspase-6 | caspase-3 activity, specificity experiment [3]: inhibits activity of caspase-3 and caspase-6

Reference: patent publication US10040836B2, “Peptides for the treatment of neurodegenerative diseases” (Ramot at Tel-Aviv University Ltd., priority 2012, dated 2018)
